Test: xn = mol fraction of the nth substance listed
Settings: 100 kPa, Liquid; for mass density: Vibrating tube method; for electrical conductivity: Alternating current cell with electrodes; for viscosity: Concentric cylinders viscometry

O=[PH](O)O [phosphonic acid] + CN(C)C=O
Settings	electrical conductivity [S/m]	mass density [kg/m3]	viscosity [mPa·s]
318.15 K, x1 = 0.421	–	1170.67	–
318.15 K, x1 = 0.4479	–	1189.61	–
318.15 K, x1 = 0.4707	–	1204.42	–
318.15 K, x1 = 0.493	–	1218.59	–
318.15 K, x1 = 0.5074	–	1227.51	–
318.15 K, x1 = 0.5196	–	1237.92	–
318.15 K, x1 = 0.5429	–	1253.45	–
318.15 K, x1 = 0.5724	–	1275.06	–
318.15 K, x1 = 0.5925	–	1289.1	–
318.15 K, x1 = 0.6245	–	1311.81	–
318.15 K, x1 = 0.6554	–	1339.01	–
318.15 K, x1 = 0.6753	–	1347.93	–
318.15 K, x1 = 0.6923	–	1362.29	–
318.15 K, x1 = 0.7142	–	1382.56	–
318.15 K, x1 = 0.725	–	1385.03	–
318.15 K, x1 = 0.7592	–	1416.55	–
318.15 K, x1 = 0.7694	–	1427.77	–
318.15 K, x1 = 0.7845	–	1434.51	–
328.15 K, x1 = 0.0911	–	962.58	–
328.15 K, x1 = 0.1181	0.0815	–	–
328.15 K, x1 = 0.1365	–	987.46	–
328.15 K, x1 = 0.1798	–	1011.93	–
328.15 K, x1 = 0.1829	–	1013.72	–
328.15 K, x1 = 0.1973	–	–	1.92
328.15 K, x1 = 0.2293	–	1040.86	–
328.15 K, x1 = 0.2507	–	–	2.88
328.15 K, x1 = 0.291	–	1078.19	–
328.15 K, x1 = 0.2984	0.173	–	4.07
328.15 K, x1 = 0.3115	–	–	4.29
328.15 K, x1 = 0.3298	0.183	1102.77	–
328.15 K, x1 = 0.3442	–	1111.65	–
328.15 K, x1 = 0.3491	–	–	6.02
328.15 K, x1 = 0.3712	–	1129.07	–
328.15 K, x1 = 0.3937	–	1143.78	–
328.15 K, x1 = 0.3968	0.275	–	8.65
328.15 K, x1 = 0.3988	–	–	8.5
328.15 K, x1 = 0.4107	–	1155.04	9.62
328.15 K, x1 = 0.421	–	1161.92	–
328.15 K, x1 = 0.4479	0.316	1180.89	12.3
328.15 K, x1 = 0.4707	–	1195.74	–
328.15 K, x1 = 0.493	–	1211.17	–
328.15 K, x1 = 0.4968	–	–	16.2
328.15 K, x1 = 0.5074	–	1221.28	16
328.15 K, x1 = 0.5196	–	1229.86	–
328.15 K, x1 = 0.5429	–	1246.5	–
328.15 K, x1 = 0.5503	–	–	22
328.15 K, x1 = 0.5724	–	1267.84	–
328.15 K, x1 = 0.5761	0.512	–	24.9
328.15 K, x1 = 0.5925	–	1282.63	–
328.15 K, x1 = 0.5993	–	–	25.5
328.15 K, x1 = 0.6245	–	1306.4	–
328.15 K, x1 = 0.6261	–	–	29.5
328.15 K, x1 = 0.6316	0.71	–	30.1
328.15 K, x1 = 0.6478	–	–	32.2
328.15 K, x1 = 0.6554	0.802	1330.73	32
328.15 K, x1 = 0.682	1.07	–	34.4
328.15 K, x1 = 0.7142	–	1375.29	37.1
328.15 K, x1 = 0.725	–	1383.85	–
328.15 K, x1 = 0.7592	–	1411.1	–
328.15 K, x1 = 0.7694	1.77	1419.7	39.8
328.15 K, x1 = 0.7832	1.91	–	40.5
328.15 K, x1 = 0.7845	–	1430.74	–
338.15 K, x1 = 0.0911	–	954.96	–
338.15 K, x1 = 0.1365	–	979.11	–
338.15 K, x1 = 0.1798	–	1003.68	–
338.15 K, x1 = 0.1829	–	1004.95	–
338.15 K, x1 = 0.1973	–	–	1.67
338.15 K, x1 = 0.2293	–	1032.82	–
338.15 K, x1 = 0.2507	–	–	2.45
338.15 K, x1 = 0.291	–	1068.59	–
338.15 K, x1 = 0.2984	0.212	–	3.49
338.15 K, x1 = 0.3115	–	–	3.66
338.15 K, x1 = 0.3298	0.226	1093.82	–
338.15 K, x1 = 0.3442	–	1102.06	–
338.15 K, x1 = 0.3491	–	–	5.02
338.15 K, x1 = 0.3712	–	1119.72	–
338.15 K, x1 = 0.3937	–	1133.99	–
338.15 K, x1 = 0.3968	0.351	–	7
338.15 K, x1 = 0.3988	–	–	6.98
338.15 K, x1 = 0.4107	–	1155.74	7.75
338.15 K, x1 = 0.421	–	1160.23	–
338.15 K, x1 = 0.4479	0.356	1172.2	9.91
338.15 K, x1 = 0.4707	–	1187.28	–
338.15 K, x1 = 0.493	–	1201.35	–
338.15 K, x1 = 0.4968	–	–	12.7
338.15 K, x1 = 0.5074	–	1210.34	11.6
338.15 K, x1 = 0.5196	–	1220.86	–
338.15 K, x1 = 0.5429	–	1236.41	–
338.15 K, x1 = 0.5503	–	–	17.2
338.15 K, x1 = 0.5724	–	1258.27	–
338.15 K, x1 = 0.5761	0.642	–	18.7
338.15 K, x1 = 0.5925	–	1272.25	–
338.15 K, x1 = 0.5993	–	–	19.2
338.15 K, x1 = 0.6245	–	1295.1	–
338.15 K, x1 = 0.6261	–	–	22.6
338.15 K, x1 = 0.6316	0.891	–	22.3
338.15 K, x1 = 0.6478	–	–	23.8
338.15 K, x1 = 0.6554	1.06	1322.46	23.6
338.15 K, x1 = 0.6753	–	1331.43	–
338.15 K, x1 = 0.682	1.39	–	25.2
338.15 K, x1 = 0.6923	–	1345.85	–
338.15 K, x1 = 0.7142	–	1374.38	27
338.15 K, x1 = 0.725	–	1368.62	–
338.15 K, x1 = 0.7592	–	1400.4	–
338.15 K, x1 = 0.7694	2.29	1411.68	28.6
338.15 K, x1 = 0.7832	2.42	–	29.1
338.15 K, x1 = 0.7845	–	1422.74	–
348.15 K, x1 = 0.0911	–	945.43	–
348.15 K, x1 = 0.1365	–	969.77	–
348.15 K, x1 = 0.1798	–	994.4	–
348.15 K, x1 = 0.1829	–	995.9	–
348.15 K, x1 = 0.2293	–	1023.58	–
348.15 K, x1 = 0.291	–	1059.58	–
348.15 K, x1 = 0.3298	–	1084.14	–
348.15 K, x1 = 0.3442	–	1093.18	–
348.15 K, x1 = 0.3712	–	1110.71	–
348.15 K, x1 = 0.3937	–	1125.23	–
348.15 K, x1 = 0.4107	–	1147	–
348.15 K, x1 = 0.421	–	1150.66	–
348.15 K, x1 = 0.4479	–	1158.49	–
348.15 K, x1 = 0.4707	–	1177.52	–
348.15 K, x1 = 0.493	–	1192.77	–
348.15 K, x1 = 0.5074	–	1201.8	–
348.15 K, x1 = 0.5196	–	1210.75	–
348.15 K, x1 = 0.5429	–	1227.92	–
348.15 K, x1 = 0.5724	–	1254.23	–
348.15 K, x1 = 0.5925	–	1263.87	–
348.15 K, x1 = 0.6245	–	1286.78	–
348.15 K, x1 = 0.6554	–	1310.01	–
348.15 K, x1 = 0.6753	–	1324.98	–
348.15 K, x1 = 0.6923	–	1337.69	–
348.15 K, x1 = 0.7142	–	1366.2	–
348.15 K, x1 = 0.725	–	1373	–
348.15 K, x1 = 0.7592	–	1394.6	–
348.15 K, x1 = 0.7694	–	1401.02	–
348.15 K, x1 = 0.7845	–	1410.65	–
